Where two headings read alike, the source gives them in different places. Non-standard residues stand in square brackets, D forms with d. Residues, ends and D or L forms follow the SMILES beside them. Sar = CNCC(=O)O
Tested on: MG-63 cells
[1] = Table III, phenylalanine as a hydrophobic domain, 100 μg/well

Method: The peptides were solubilized in 70% EtOH at a starting concentration of 1 mg/ml. […] The remaining wells contained 100 μl of 70% EtOH. Taking 100 μl from the 1 mg/ml solution in the first two wells, a serial dilution was performed out to 0.15 μg/well for each peptide. The plates were allowed to dry overnight at 37° C. in the presence of a desiccator.
The following day the peptide coated plates were used in a standard adhesion assay as described in Example III, using MG-63 cells, an osteosarcoma cell line available from American Type Tissue Culture.
The plates were washed lX using PBS, (151 mM NaCl/10 mM sodium phosphate, pH 7.4). The plates were incubated with DMEM (0.1 ml/well) containing bovine serum albumin (BSA 2.5 mg/ml; Sigma Chemical Co., St. Louis, Mo.) for one hour. Two×10^5 cells/ml (MG-63) were suspended in DMEM, and BSA (2.5 mg/ml). 100 μl of cell suspension was added per well and the plates are incubated at 37° C. in 7.5% CO2 /92.5% air for one hour. Afterwards, the plate was washed once in PBS. Attached cells were then fixed with 3% paraformaldehyde and stained overnight with 1% toluidine blue in 10% formaldehyde. The following day, the excess stain was removed and the plates were washed with H2 O; 100 μl of a 1% sodium dodecyl sulfate (SDS) solution was added to each well. The level of cell attachment was then measured, using a kinetic microplate reader (Molecular Devices,) by assessing the optical density at 630 nm.

Row | Compound | percentage of maximum binding (cell attachment) | percentage of maximum binding (cell attachment) [1] | percentage of maximum binding (cell attachment) (Table III, 1.5 μg/well) | percentage of maximum binding (cell attachment) (Table III, 3 μg/well) | percentage of maximum binding (cell attachment) (Table III, 6 μg/well) | percentage of maximum binding (cell attachment) (Table III, 12 μg/well) | percentage of maximum binding (cell attachment) (Table III, 25 μg/well) | percentage of maximum binding (cell attachment) (Table III, 50 μg/well) | also measured
1 | CNCC(=O)N[C@H](CCCNC(=N)N)C(=O)NCC(=O)N[C@@H](CC(=O)O)C(=O)N[C@@H](CO)C(=O)N1CCC[C@H]1C(=O)N[C@@H](C)C(=O)N[C@@H](CO)C(=O)N[C@@H](CO)C(=O)N[C@@H](CCCCN)C(=O)N[C@@H](CO)C(=O)N[C@@H](CO)C(=O)N[C@@H](CO)C(=O)N[C@@H](CO)C(=O)N[C@@H](CCCNC(=N)N)C(=O)N[C@@H](CC(C)C)C(=O)N[C@@H](CC(C)C)C(=O)N[C@@H](CC(C)C)C(=O)N[C@@H](CC(C)C)C(=O)N[C@@H](CC(C)C)C(=O)N[C@@H](CC(C)C)C(=O)N[C@@H](CCCNC(=N)N)C(N)=O [nMeG(dR)GDSPASSKS4 RL6 RNH2] (H-[Sar][dR]GDSPASSKSSSSRLLLLLLR-NH2) | 76 percentage of maximum binding |  |  |  |  |  |  |  | 
2 | nMeGRGDSPASSKRL5 RNH2 |  | 72 percentage of maximum binding | 34 percentage of maximum binding | 44 percentage of maximum binding | 60 percentage of maximum binding | 66 percentage of maximum binding | 58 percentage of maximum binding | 68 percentage of maximum binding | 
3 | XG(R)GDSPASSKL4 NH2 [Peptide L4] |  |  |  |  |  |  |  |  | percentage of maximum binding (cell attachment) (Table II, 1.5 μg/well peptide, MG-63 cells): 1 percentage of maximum binding; percentage of maximum binding (cell attachment) (Table II, 3 μg/well peptide, MG-63 cells): 1 percentage of maximum binding; percentage of maximum binding (cell attachment) (Table II, 6 μg/well peptide, MG-63 cells): 2 percentage of maximum binding; percentage of maximum binding (cell attachment) (Table II, 12 μg/well peptide, MG-63 cells): 10 percentage of maximum binding; percentage of maximum binding (cell attachment) (Table II, 25 μg/well peptide, MG-63 cells): 16 percentage of maximum binding; percentage of maximum binding (cell attachment) (Table II, 50 μg/well peptide, MG-63 cells): 12 percentage of maximum binding; percentage of maximum binding (cell attachment) (Table II, 100 μg/well peptide dried onto well, MG-63 cells): 44 percentage of maximum binding; promotion of cell attachment (result in words) (peptide coated 100 to 1.5 μg/well, MG-63 cells, summary of Table II): promoted marginal cell attachment only at the highest concentration of 100 μg/well
4 | CNCC(=O)N[C@H](CCCNC(=N)N)C(=O)NCC(=O)N[C@@H](CC(=O)O)C(=O)N[C@@H](CO)C(=O)N1CCC[C@H]1C(=O)N[C@@H](C)C(=O)N[C@@H](CO)C(=O)N[C@@H](CO)C(=O)N[C@@H](CCCCN)C(=O)N[C@@H](CO)C(=O)N[C@@H](CO)C(=O)N[C@@H](CCCNC(=N)N)C(=O)N[C@@H](CC(C)C)C(=O)N[C@@H](CC(C)C)C(=O)N[C@@H](CC(C)C)C(=O)N[C@@H](CC(C)C)C(=O)N[C@@H](CC(C)C)C(=O)N[C@@H](CC(C)C)C(=O)N[C@@H](CCCNC(=N)N)C(N)=O [nMeG(dR)GDSPASSKS2 RL6 RNH2] (H-[Sar][dR]GDSPASSKSSRLLLLLLR-NH2) | 38 percentage of maximum binding |  |  |  |  |  |  |  | 
5 | CCCCCCCCCCCCCC(=O)O [Myristic acid] |  |  |  |  |  |  |  |  | percentage of maximum binding (cell attachment) (Table IV, myristic acid as hydrophobic carrier, 100 μg/well): 33 percentage of maximum binding; percentage of maximum binding (cell attachment) (Table IV, 6 μg/well): 45 percentage of maximum binding; percentage of maximum binding (cell attachment) (Table IV, 12 μg/well): 75 percentage of maximum binding; percentage of maximum binding (cell attachment) (Table IV, 25 μg/well): 50 percentage of maximum binding; percentage of maximum binding (cell attachment) (Table IV, 50 μg/well): 30 percentage of maximum binding
6 | CNCC(=O)N[C@H](CCCNC(=N)N)C(=O)NCC(=O)N[C@@H](CC(=O)O)C(=O)N[C@@H](CO)C(=O)N1CCC[C@H]1C(=O)N[C@@H](C)C(=O)N[C@@H](CO)C(=O)N[C@@H](CO)C(=O)N[C@@H](CCCCN)C(=O)N[C@@H](CC(C)C)C(=O)N[C@@H](CC(C)C)C(=O)N[C@@H](CC(C)C)C(=O)N[C@@H](CC(C)C)C(=O)N[C@@H](CC(C)C)C(=O)N[C@@H](CC(C)C)C(N)=O [nMeG(dR)GDSPASSKL6 NH2] (H-[Sar][dR]GDSPASSKLLLLLL-NH2) | 9 percentage of maximum binding |  |  |  |  |  |  |  | 
7 | nMeGRGDSPASSKS3 RF6 RNH2 |  | 69 percentage of maximum binding | 70 percentage of maximum binding | 70 percentage of maximum binding | 65 percentage of maximum binding | 66 percentage of maximum binding | 60 percentage of maximum binding | 69 percentage of maximum binding | 
8 | nMeG(dR)GDSPASSKRF4 RNH2 [nMeGRGDSPASSKRF4 RNH2] |  | 70 percentage of maximum binding | 34 percentage of maximum binding | 50 percentage of maximum binding | 56 percentage of maximum binding | 59 percentage of maximum binding | 60 percentage of maximum binding | 73 percentage of maximum binding | 
9 | nMEGRGDSPASSKRF6 RNH2 |  | 70 percentage of maximum binding | 50 percentage of maximum binding | 54 percentage of maximum binding | 57 percentage of maximum binding | 52 percentage of maximum binding | 56 percentage of maximum binding | 75 percentage of maximum binding | 

From US5760176A, “Hydrophobic attachment site for adhesion peptides” (La Jolla Cancer Research Foundation, priority 1996, dated 1998)
